Laboratory results as given in patent publication US7161032B2, “Sulfonamide derivatives, insecticides for agricultural and horticultural use, and usage thereof” (Nihon Nohyaku Co., Ltd., priority 2002, dated 2007).

Tests used:
Type in all cases: in vivo
[1] = tested on: Diamond Back Moth (Plutella xylostella); assay: Insecticidal effect on diamond back moth (Test Example 1): egg-bearing Chinese cabbage seedling immersed in 50 ppm liquid chemical
Experimental: Adult diamond back moths were released and allowed to oviposit on a Chinese cabbage seedling. Two days after the release, the seedling having the eggs deposited thereon was immersed for about 30 seconds in a liquid chemical prepared by diluting a preparation containing each compound listed in Table 1 or 2 as an active ingredient to adjust the concentration to 50 ppm. After air-dryness, it was allowed to stand in a room thermostated at 25° C. Six days after the immersion, the hatched insects were counted. The mortality was calculated according to the following equation and the insecticidal effect was judged according to the criterion shown below. The test was carried out with triplicate groups of 10 insects. [formula]

[2] = tested on: Common Cutworm (Spodoptera litura); assay: Insecticidal effect on common cutworm (Test Example 2): cabbage leaf piece immersed in 50 ppm liquid chemical; conditions: common cutworm (Spodoptera litura) second-instar larvae, 8 days after inoculation, 25° C.
Experimental: A piece of cabbage leaf (cultivar: Shikidori) was immersed for about 30 seconds in a liquid chemical prepared by diluting a preparation containing each compound listed in Table 1 or 2 as an active ingredient to adjust the concentration to 50 ppm. After air-dryness, it was placed in a plastic Petri dish with a diameter of 9 cm and inoculated with second-instar larvae of common cutworm, after which the dish was closed and then allowed to stand in a room thermostated at 25° C. Eight days after the inoculation, the dead and alive were counted. The mortality was calculated according to the following equation and the insecticidal effect was judged according to the criterion shown in Test Example 1. The test was carried out with triplicate groups of 10 insects. [formula]

[3] = tested on: Smaller Tea Tortrix (Adoxophyes sp.); assay: Insecticidal effect on smaller tea tortrix (Test Example 3): tea leaves immersed in 50 ppm liquid chemical; conditions: smaller tea tortrix (Adoxophyes sp.) larvae, 8 days after inoculation, 25° C., humidity 70%
Experimental: Tea leaves were immersed for about 30 seconds in a liquid chemical prepared by diluting a preparation containing each compound listed in Table 1 or 2 as an active ingredient to adjust the concentration to 50 ppm. After air-dryness, the tea leaves were placed in a plastic Petri dish with a diameter of 9 cm and inoculated with larvae of smaller tea tortrix, after which the dish was allowed to stand in a room thermostated at 25° C. and having a humidity of 70%. Eight days after the inoculation, the dead and alive were counted and the insecticidal effect was judged according to the criterion shown in Test Example 1. The test was carried out with triplicate groups of 10 insects.

| Structure (SMILES) | Insecticidal effect (mortality grade), Test Example 1 [1] | Insecticidal effect (mortality grade), Test Example 2 [2] | Insecticidal effect (mortality grade), Test Example 3 [3] |
| --- | --- | --- | --- |
| Cc1cc(C(F)(C(F)(F)F)C(F)(F)F)ccc1NC(=O)c1cccc(I)c1C(=O)NC(C)CS(=O)(=O)NCc1ccc([N+](=O)[O-])cc1 (stereo not drawn) [1-36] | A (Mortality 100%) | A (Mortality 100%) | A (Mortality 100%) |
| Cc1cc(C(F)(C(F)(F)F)C(F)(F)F)ccc1NC(=O)c1cccc(I)c1C(=O)NC(C)CS(=O)(=O)NCc1ccc(C#N)cc1 (stereo not drawn) [1-37] | A (Mortality 100%) | A (Mortality 100%) | A (Mortality 100%) |
| Cc1cc(C(F)(C(F)(F)F)C(F)(F)F)ccc1NC(=O)c1cccc(I)c1C(=O)NC(C)CS(=O)(=O)NCc1ccc(SC(F)(F)F)cc1 (stereo not drawn) [1-38] | A (Mortality 100%) | A (Mortality 100%) | A (Mortality 100%) |
| Cc1cc(C(F)(C(F)(F)F)C(F)(F)F)ccc1NC(=O)c1cccc(I)c1C(=O)NC(C)CS(=O)(=O)NCc1ccccn1 (stereo not drawn) [1-39] | A (Mortality 100%) | A (Mortality 100%) | A (Mortality 100%) |
| Cc1cc(C(F)(C(F)(F)F)C(F)(F)F)ccc1NC(=O)c1cccc(I)c1C(=O)NC(C)CS(=O)(=O)NCc1cccnc1 (stereo not drawn) [1-40] | A (Mortality 100%) | A (Mortality 100%) | A (Mortality 100%) |
| Cc1cc(C(F)(C(F)(F)F)C(F)(F)F)ccc1NC(=O)c1cccc(I)c1C(=O)NC(C)CS(=O)(=O)NCc1ccncc1 (stereo not drawn) [1-41] | A (Mortality 100%) | A (Mortality 100%) | A (Mortality 100%) |
| Cc1cc(C(F)(C(F)(F)F)C(F)(F)F)ccc1NC(=O)c1cccc(I)c1C(=O)NC(C)CS(=O)(=O)N(C)Cc1ccccc1 (stereo not drawn) [1-42] | A (Mortality 100%) | A (Mortality 100%) | A (Mortality 100%) |
| CCN(Cc1ccccc1)S(=O)(=O)CC(C)NC(=O)c1c(I)cccc1C(=O)Nc1ccc(C(F)(C(F)(F)F)C(F)(F)F)cc1C (stereo not drawn) [1-43] | A (Mortality 100%) | A (Mortality 100%) | A (Mortality 100%) |
| Cc1cc(C(F)(C(F)(F)F)C(F)(F)F)ccc1NC(=O)c1cccc(I)c1C(=O)NC(C)CS(=O)(=O)NC(C)c1ccccc1 (stereo not drawn) [1-44] | A (Mortality 100%) | A (Mortality 100%) | A (Mortality 100%) |
| Cc1cc(C(F)(C(F)(F)F)C(F)(F)F)ccc1NC(=O)c1cccc(I)c1C(=O)NC(C)CS(=O)(=O)N[C@H](C)c1ccccc1 (stereo partly drawn) [1-45] | A (Mortality 100%) | A (Mortality 100%) | A (Mortality 100%) |
| Cc1cc(C(F)(C(F)(F)F)C(F)(F)F)ccc1NC(=O)c1cccc(I)c1C(=O)NC(C)CS(=O)(=O)N[C@@H](C)c1ccccc1 (stereo partly drawn) [1-46] | A (Mortality 100%) | A (Mortality 100%) | A (Mortality 100%) |
| Cc1cc(C(F)(C(F)(F)F)C(F)(F)F)ccc1NC(=O)c1cccc(I)c1C(=O)NC(C)CS(=O)(=O)NCCc1ccccc1 (stereo not drawn) [1-47] | A (Mortality 100%) | A (Mortality 100%) | A (Mortality 100%) |
| Cc1cc(C(F)(C(F)(F)F)C(F)(F)F)ccc1NC(=O)c1cccc(I)c1C(=O)NC(C)CS(=O)(=O)NC(C)(C)Cc1ccccc1 (stereo not drawn) [1-48] | A (Mortality 100%) | C (Mortality 89–80%) | A (Mortality 100%) |
| Cc1cc(C(F)(C(F)(F)F)C(F)(F)F)ccc1NC(=O)c1cccc(I)c1C(=O)NC(C)CS(=O)(=O)N1CCOCC1 (stereo not drawn) [1-54] | A (Mortality 100%) | A (Mortality 100%) | A (Mortality 100%) |
| Cc1cc(C(F)(C(F)(F)F)C(F)(F)F)ccc1NC(=O)c1cccc(I)c1C(=O)NC(C)CS(=O)(=O)N1CCSCC1 (stereo not drawn) [1-55] | A (Mortality 100%) | A (Mortality 100%) | A (Mortality 100%) |
| Cc1cc(C(F)(C(F)(F)F)C(F)(F)F)ccc1NC(=O)c1cccc(I)c1C(=O)NC(C)CS(=O)(=O)N1CC[S+]([O-])CC1 (stereo not drawn) [1-56] | A (Mortality 100%) | A (Mortality 100%) | A (Mortality 100%) |
| Cc1cc(C(F)(C(F)(F)F)C(F)(F)F)ccc1NC(=O)c1cccc(I)c1C(=O)NC(C)CS(=O)(=O)N1CCS(=O)(=O)CC1 (stereo not drawn) [1-57] | A (Mortality 100%) | A (Mortality 100%) | A (Mortality 100%) |
| Cc1cc(C(F)(C(F)(F)F)C(F)(F)F)ccc1NC(=O)c1cccc(I)c1C(=O)NC(C)(C)CS(=O)(=O)N1CCSCC1 [1-58] | A (Mortality 100%) | A (Mortality 100%) | E (Mortality less than 50%) |
| Cc1cc(C(F)(C(F)(F)F)C(F)(F)F)ccc1NC(=O)c1cccc(I)c1C(=O)NC(C)(C)CS(=O)(=O)N1CC[S+]([O-])CC1 [1-59] | A (Mortality 100%) | A (Mortality 100%) | E (Mortality less than 50%) |
| Cc1cc(C(F)(C(F)(F)F)C(F)(F)F)ccc1NC(=O)c1cccc(I)c1C(=O)NC(C)(C)CS(=O)(=O)N1CCS(=O)(=O)CC1 [1-60] | A (Mortality 100%) | A (Mortality 100%) | E (Mortality less than 50%) |
| Cc1cc(C(F)(C(F)(F)F)C(F)(F)F)ccc1NC(=O)c1cccc(I)c1C(=O)NC(C)(C)CS(=O)(=O)N1CCSCC1C (stereo not drawn) [1-61] | A (Mortality 100%) | A (Mortality 100%) | A (Mortality 100%) |
| Cc1cc(C(F)(C(F)(F)F)C(F)(F)F)ccc1NC(=O)c1cccc(I)c1C(=O)NC(C)(C)CS(=O)(=O)N1CC[S+]([O-])CC1C (stereo not drawn) [1-62] | A (Mortality 100%) | A (Mortality 100%) | A (Mortality 100%) |
| Cc1cc(C(F)(C(F)(F)F)C(F)(F)F)ccc1NC(=O)c1cccc(I)c1C(=O)NC(C)(C)CS(=O)(=O)N1CCS(=O)(=O)CC1C (stereo not drawn) [1-63] | A (Mortality 100%) | A (Mortality 100%) | A (Mortality 100%) |
